In series [1] the test system is NO production in LPS-stimulated RAW 264.7 macrophages. The series can be described thus: NO production (Griess assay) in LPS-stimulated macrophages. The note with it: Mus musculus, RAW264.7, 24 h, RAW 264.7, LPS 100 ng/mL, Griess. It is filed as cell-based, murine. As to the method:
The anti-inflammatory potential of chalcones 1–7 was evaluated in macrophages cultured in the presence or absence (control) of LPS, as depicted in Figure 4. Under basal conditions (unstimulated, control), macrophages produce low levels of nitrites (≈12%). […] Each chalcone was tested at concentrations previously established as non-cytotoxic in macrophages, trying to ensure that observed changes in NO levels were not due to reduced cell viability.
The production of NO was evaluated by measuring nitrite accumulation in culture supernatants using the previously described Griess assay. Cells were seeded at a concentration of 5.0 × 10^4 cells/mL in a 96-well plate (200 μL/well) and allowed to stabilize overnight at 37 °C. Afterwards, the cells were treated with different concentrations of compound solutions and pre-incubated for 1 h at 37 °C. Subsequently, an LPS in PBS solution was added to each well, achieving a final concentration of 100 ng/mL, and the plate was left to incubate for 24 h. An amount of 150 μL of the cell culture supernatant was then transferred to a fresh 96-well plate, and an equal amount of Griess reagent [comprising a 1:1 mixture of 1% (w/v) sulphanilamide in 5% (v/v) phosphoric acid and 0.1% (w/v) naphthylethylenediaminedihydrochloride] was added. Following a 30 min incubation at room temperature in the dark, the absorbance was recorded at 550 nm using a Biotek Synergy HT plate reader (Biotek, CA, USA). The nitrite concentration in the supernatants was determined by comparing the absorbance of each sample to a sodium nitrite standard curve. The results, obtained from at least three independent experiments performed in duplicate, were expressed as a percentage of NO production by cells versus chemical concentration, relative to LPS condition (100%).
Figure 4 NO production by macrophages treated with LPS (100 ng/mL) or not (control) in the presence of chalcones 1–7. Results are expressed as a percentage of NO production by cells treated with LPS (100 ng/mL). Each value represents the mean ± SEM of four independent experiments in duplicate. Statistical analysis: one ANOVA with Dunnett’s multiple comparisons test, where p< 0.05 was considered significant. *** p < 0.005, relative to the control, and ^# p < 0.05, ^## p < 0.01, ^### p < 0.0005, and ^#### p < 0.0001, relative to LPS condition.
On the technique in general: Nitrite, measured by Griess reagent, commonly stands in for NO production.

Another series concerns RAW 264.7 macrophages. The series can be described thus: Resazurin cell viability assay in RAW 264.7 macrophages. It is filed as cell-based, murine. Particulars: RAW 264.7, 24 h. The protocol: (§1) To evaluate the effects of chalcones 1–7 on cell viability after 24 h, a resazurin assay was performed using two cell lines: human HaCaT keratinocytes (HaCaT, CLS 300493), representing the epidermal layer, and murine RAW 264.7 macrophages (RAW 264.7, ATCC TIB-71), which model immune cells involved in dermal inflammatory responses. For the keratinocyte cell line, all seven brominated and non-brominated chalcones were tested across a concentration range from 2.5 μM to 125 μM (Figure 2).
To evaluate the cytotoxic effects of brominated and non-brominated chalcones 1–7 on macrophages, different concentration ranges were applied based on the response profiles previously observed for keratinocytes (Figure 3). […] For this set of chalcones, a similar tendency was observed: a lower cytotoxic characteristic of chalcone 4, which contained bromine atoms in both aromatic rings, compared to chalcones 5 (brominated in only the aromatic A ring) and 6 (non-brominated).
(§2) Human keratinocytes (HaCaT, CLS 300493, Eppelheim, Germany) were cultured in DMEM supplemented with heat-inactivated FBS, and a penicillin and streptomycin antibiotic solution. The cell culture of keratinocytes was washed with 6 mL of phosphate buffer solution with 0.05% EDTA (Sigma-Aldrich, St. Louis, MO, USA) and detached using 3 mL of 0.05% trypsin + 0.02% EDTA in PBS solution when the cells reached 70–80% confluence in cell culture flasks. DMEM was also used to cultivate the mouse macrophage cell line (RAW 264.7, ATCC TIB-71, Manassas, VA, USA) together with 10% (v/v) non-inactivated FBS, 1.5 g/L sodium bicarbonate, and 100 U/mL penicillin and 100 μg/mL streptomycin stock (antibiotic solution). The macrophage culture was mechanically detached using a cell scraper, and the final amount of DMEM media with the cells was sub-cultured in a 1:10 ratio to the cellular suspension.
The resazurin reduction assay was employed to evaluate the metabolic activity of human epidermal keratinocyte (HaCaT) and murine macrophage (RAW264.7) cell lines, as outlined in a previous study. In brief, HaCaT cells (1.0 × 10^5 cells/mL) and RAW264.7 cells (5.0 × 10^4 cells/mL) were seeded in 96-well plates (200 μL/well) and incubated overnight at 37 °C to allow for cell attachment. Following this, the cells were treated with different concentrations of the test compounds and kept at 37 °C for 24 h. After 20 h, resazurin (500 μM in sterile phosphate buffer solution, pH 7.4) was added to each well to achieve a final concentration of 50 μM, followed by an additional incubation of 4 h. Absorbance was then measured at wavelengths of 570 and 620 nm using a SpectraMax Plus 384 absorbance microplate spectrophotometer (Molecular Devices, San Jose, CA, USA). Each experiment was conducted in triplicate, with a minimum of three independent assays. […]

Series [2] is described as follows: Resazurin cell viability assay in HaCaT keratinocytes. Type of series: cell-based, human. Particulars: human, HaCaT keratinocytes, resazurin, read-out: IC50 (cell viability, cytotoxicity). As to the method:
as §1, §2
(§3) The resazurin reduction assay was employed to evaluate the metabolic activity of human epidermal keratinocyte (HaCaT) and murine macrophage (RAW264.7) cell lines, as outlined in a previous study. In brief, HaCaT cells (1.0 × 10^5 cells/mL) and RAW264.7 cells (5.0 × 10^4 cells/mL) were seeded in 96-well plates (200 μL/well) and incubated overnight at 37 °C to allow for cell attachment. Following this, the cells were treated with different concentrations of the test compounds and kept at 37 °C for 24 h. After 20 h, resazurin (500 μM in sterile phosphate buffer solution, pH 7.4) was added to each well to achieve a final concentration of 50 μM, followed by an additional incubation of 4 h. Absorbance was then measured at wavelengths of 570 and 620 nm using a SpectraMax Plus 384 absorbance microplate spectrophotometer (Molecular Devices, San Jose, CA, USA). Each experiment was conducted in triplicate, with a minimum of three independent assays. The results were graphically presented as the percentage of cell viability versus chemical concentration, relative to the control.
(§4) Figure 2 Cytotoxicity of chalcones 1–7 using a resazurin reduction assay in HaCaT cells by comparison with the control. Bar graphs represent the mean ± SEM of at least three independent experiments performed in triplicate. Statistical analysis: one ANOVA with Dunnett’s multiple comparisons test, where p < 0.05 was considered significant when compared to the control condition. * p < 0.05, ** p < 0.01, and *** p < 0.0005.
In general terms: Alamar Blue is a resazurin reagent that responds to reducing activity.

The next series has as its system HaCaT keratinocytes. The series is described as above. Particulars: HaCaT, 24 h; for cytotoxicity / impact on keratinocyte viability: at 2.5 μM and 7.5 μM. Type of series: cell-based, human. As to the method:
as §1, §2, §3, §4

The results in this text go back to paper PMC12299847, “Macroalgae-Inspired Brominated Chalcones as Cosmetic Ingredients with the Potential to Target Skin Inflammaging” (Marine Drugs, 2025).

As usually defined, the IC50 is the concentration needed to halve the response being measured.

Turning to `COc1cccc(/C=C/C(=O)c2c(Br)c(Br)cc(OC)c2OC)c1OC` [Chalcone 5], the IC50 in series [1] stood at 0.99 ± 0.54 µM. Further, in the series with RAW 264.7 macrophages, the “concentration up to which acceptable levels of cytotoxicity were observed” value (“concentration up” below) is “up to 1 μM”. Further, in series [2], the IC50 at 24 h was found to be 30.4 ± 2.66 µM. In addition, in the series with HaCaT keratinocytes, the “cytotoxicity / impact on keratinocyte viability” value was “no significant impact”.

For the compound `COc1cccc(/C=C/C(=O)c2cccc(OC)c2OC)c1OC` [Chalcone 6], the IC50 in series [1] came to 5.95 ± 1.49 µM. Further, the “concentration up” value in the series with RAW 264.7 macrophages is given as “up to 1 μM”. Besides, in series [2], the IC50 at 24 h is 14.7 ± 3.97 µM. For the same compound, the “reduction in cellular viability” value with HaCaT keratinocytes (at 2.5 μM) was around 25%.

Turning to `COc1cc(Br)cc(/C=C/C(=O)c2c(Br)c(Br)cc(OC)c2OC)c1OC` [Chalcone 4], in series [1], the IC50 amounted to 0.97 ± 0.22 µM. For the same compound, in the series on RAW 264.7 macrophages, the “concentration up” value is “up to 7.5 μM”. The IC50 at 24 h in series [2] came to 11.7 ± 1.34 µM. The “cytotoxicity / impact on keratinocyte viability” value in the series with HaCaT keratinocytes is listed as “no significant impact”.
